“And” between values parts separate entries of the source, which are not always exact repeats. Equal entries are not always repeated.
Assay: Intravenous and intraduodenal (bolus) bioavailability of zanamivir from Capmul MCM L8 25, 50, 75 µL (Example 7)
Settings: for Co: extrapolated to t = 0
Description: Male Sprague-Dawley rats (Hilltop Labs), 3 animals per treatment group, 250-350 grams in weight, were fitted with a jugular vein cannula (JVC). Animals intended for intraduodenal dosing were also fitted with one or more intraduodenal cannula (IDC) and those intended for intravenous dosing were fitted with a second JVC. Food was withheld from the animals for a minimum of twelve hours prior to test article administration and was returned approximately four hours post-dose. Water was supplied ad libitum.
Intraduodenal doses composed of 1.5 mg of zanamivir and varying amounts of an enhancer (glycerol or Capmul MCM L8) were injected directly into the duodenum via the IDC. Intravenous dosing was conducted by the injection of 1.5 mg of zanamivir in 200 μL of PBS through a JVC. For some experiments, the absorption enhancer was administered intraduodenally 2 hr prior to administering 1.5 mg of zanamivir in PBS through a second IDC. Each intraduodenal dose was followed with the introduction of a small air bubble (˜10 μL) in the cannula followed by a flush of 125 μL of PBS to ensure the dose was given in full. The volume of PBS used for cannula flush was consistent across the treatment groups. The cannula was tied to prevent the PBS remaining in the cannula from entering the duodenum.
Blood samples collected via the JVC, approximately 400 μL each, were obtained at 2 min, 5 min, 15 min, 30 min, 60 min, 90 min, and 120 min, with sodium heparin used as an anti-coagulant. Each sample was placed into a chilled tube containing the anticoagulant and kept on ice until centrifugation at 4° C., 3,000×g, for 5 min. The plasma supernatants were stored at −70° C. until LC-MS analysis.
Dosing solution samples were assayed by LC-MS/MS using electrospray ionization. The chromatographic system consisted of Perkin Elmer series 200 micropumps and autosampler equipped with a Waters Atlantic® HILIC Silica 3 μM, 2.1×50 mm column. The mass spectrometer was a PE Sciex API 4000 with electrospray interface in multiple reaction monitoring mode. […] Stock solutions (1 mg/mL zanamivir) were prepared in water. Standards (eight concentrations) were prepared in the appropriate matched matrix (HBSSg or Sprague-Dawley rat plasma containing sodium heparin) and diluted 50-fold with methanol. Experimental samples were treated identically.
Standards and samples were prepared in Sprague Dawley rat plasma containing sodium heparin as an anticoagulant. An eight-point calibration curve was prepared at concentrations of 1000, 750, 500, 250, 100, 50, 25, and 10 ng/mL by serial dilution. Standard samples were treated identically to the study samples.
Plasma samples were extracted by protein precipitation in methanol.
In this example, the bioavailability of Zanamivir was evaluated after intraduodenal doses in male Sprague-Dawley rats. The test compound was dosed at 1.5 mg/animal through intravenous and intraduodenal routes from normal saline and Capmul MCM L8 formulations, respectively. Plasma levels were determined by LC-MS/MS analysis. Pharmacokinetic parameters were estimated by a non-compartmental model using WinNonlin v5.2.1 software.
Each ID dose in groups 2-4 will be followed with a small air bubble ([…]) and a flush of […] of PBS to insure the dose is given in full. The volume of PBS used for cannulae flush will be maintained consistent across the animals and the treatment groups. The cannula will then be tied to help prevent the PBS remaining in the cannula from entering the duodenum.

[1] = IV 1.5 mg/animal, Normal Saline, Ex.7, individual rats

In the case of `CC(=O)NC1C(NC(=N)N)C=C(C(=O)O)OC1C(O)C(O)CO` (stereo not drawn) [Zanamivir, 5-acetamido-4-guanidino-6-(1,2,3-trihydroxypropyl)-5,6-dihydro-4H-pyran-2-carboxylic acid], the Plasma concentration (ID bolus 1.5 mg/animal, 25 µL Capmul MCM L8, 0.25 hr, individual rats) is reported as 1500 ng/mL and 1380 ng/mL and 655 ng/mL, the Plasma concentration (ID bolus 1.5 mg/animal, 25 µL Capmul MCM L8, 0.5 hr, individual rats) is reported as 950 ng/mL and 647 ng/mL and the Plasma concentration (ID bolus 1.5 mg/animal, 25 µL Capmul MCM L8, 0.83 hr, individual rats) is reported as 1960 ng/mL and 2090 ng/mL and 913 ng/mL. The Plasma concentration (ID bolus 1.5 mg/animal, 25 µL Capmul MCM L8, 1.0 hr, individual rats) was 378 ng/mL and 259 ng/mL, the Plasma concentration (ID bolus 1.5 mg/animal, 25 µL Capmul MCM L8, 1.5 hr, individual rats) was 143 ng/mL and 119 ng/mL and the Plasma concentration (ID bolus 1.5 mg/animal, 25 µL Capmul MCM L8, 2.0 hr, individual rats) was 78.2 ng/mL and 66.8 ng/mL. The t1/2 (ID bolus 1.5 mg/animal, 25 µL Capmul MCM L8, individual rats) was 26.4 min and 30.7 min, the Plasma concentration (ID bolus 1.5 mg/animal, 50 µL Capmul MCM L8, Ex.7, 0.25 hr, individual rats) was 1400 ng/mL and 1270 ng/mL and the Plasma concentration (ID bolus 1.5 mg/animal, 50 µL Capmul MCM L8, Ex.7, 0.5 hr, individual rats) was 985 ng/mL and 774 ng/mL. For the same compound, the Plasma concentration (ID bolus 1.5 mg/animal, 50 µL Capmul MCM L8, Ex.7, 0.83 hr, individual rats) was 2130 ng/mL and 1600 ng/mL, the Plasma concentration (ID bolus 1.5 mg/animal, 50 µL Capmul MCM L8, Ex.7, 1.0 hr, individual rats) was 708 ng/mL and 551 ng/mL and the Plasma concentration (ID bolus 1.5 mg/animal, 50 µL Capmul MCM L8, Ex.7, 1.5 hr, individual rats) was 299 ng/mL and 217 ng/mL. For the same compound, the Plasma concentration (ID bolus 1.5 mg/animal, 50 µL Capmul MCM L8, Ex.7, 2.0 hr, individual rats) was 158 ng/mL and 99.5 ng/mL, the t1/2 (ID bolus 1.5 mg/animal, 50 µL Capmul MCM L8, Ex.7, individual rats) was 27.7 min and 24.3 min and the Plasma concentration (IV 1.5 mg/animal, Normal Saline, Ex.7, 0.033 hr, individual rats) was 22900 ng/mL and 20400 ng/mL. The Plasma concentration (IV 1.5 mg/animal, Normal Saline, Ex.7, 0.083 hr, individual rats) was 12300 ng/mL and 13500 ng/mL, the Plasma concentration (IV 1.5 mg/animal, Normal Saline, Ex.7, 0.25 hr, individual rats) was 9620 ng/mL and 11600 ng/mL and the Plasma concentration (IV 1.5 mg/animal, Normal Saline, Ex.7, 0.5 hr, individual rats) was 5500 ng/mL and 6450 ng/mL. For the same compound, the Plasma concentration (IV 1.5 mg/animal, Normal Saline, Ex.7, 1.0 hr, individual rats) was 1520 ng/mL and 2190 ng/mL, the Plasma concentration (IV 1.5 mg/animal, Normal Saline, Ex.7, 1.5 hr, individual rats) was 661 ng/mL and 862 ng/mL and the Plasma concentration (IV 1.5 mg/animal, Normal Saline, Ex.7, 2.0 hr, individual rats) was 220 ng/mL and 432 ng/mL. The Co [1] was 32061 ng/mL and 34657 ng/mL and 26863 ng/mL, the Co (IV 1.5 mg/animal, Normal Saline, Ex.7, mean) was 31194 ± 3968 ng/mL and 31194 ng/mL and the CL [1] was 10.7 mL/min/kg and 9.52 mL/min/kg. For the same compound, the T1/2 [1] was 21.5 min and 25.6 min, the Vss [1] was 0.260 L/kg and 0.278 L/kg and the half-life (male, Sprague-Dawley, rat, in vivo, 1.5 mg, average half-life, ID bolus 1.5 mg/animal, 75 µL Capmul MCM L8) was 24.9 ± 3.78 min. The bioavailability (male, Sprague-Dawley, rat, in vivo, 1.5 mg, overall percent bioavailability) was 25%, the half-life (male, Sprague-Dawley, rat, in vivo, 1.5 mg, t1/2, ID bolus 1.5 mg/animal, 25 µL Capmul MCM L8, individual rats) was 24.5 min and the half-life (male, Sprague-Dawley, rat, in vivo, 1.5 mg, t1/2, ID bolus 1.5 mg/animal, 25 µL Capmul MCM L8, mean) was 27.2 ± 3.18 min. The half-life (male, Sprague-Dawley, rat, in vivo, 1.5 mg, t1/2, ID bolus 1.5 mg/animal, 50 µL Capmul MCM L8, Ex.7, individual rats) was 21.8 min, the half-life (male, Sprague-Dawley, rat, in vivo, 1.5 mg, t1/2, ID bolus 1.5 mg/animal, 50 µL Capmul MCM L8, Ex.7, mean) was 24.6 min and the half-life (male, Sprague-Dawley, rat, in vivo, 1.5 mg, t1/2, intraduodenal bolus, 1.5 mg/animal, 75 μL Capmul MCM L8, mean of 3 rats) was 24.9 min. It also gave a half-life (male, Sprague-Dawley, rat, in vivo, 1.5 mg, t1/2, intraduodenal bolus, 1.5 mg/animal, 75 μL Capmul MCM L8, rat 963) of 29.2 min, a half-life (male, Sprague-Dawley, rat, in vivo, 1.5 mg, t1/2, intraduodenal bolus, 1.5 mg/animal, 75 μL Capmul MCM L8, rat 964) of 21.9 min and a half-life (male, Sprague-Dawley, rat, in vivo, 1.5 mg, t1/2, intraduodenal bolus, 1.5 mg/animal, 75 μL Capmul MCM L8, rat 965) of 23.6 min. For the same compound, the half-life (male, Sprague-Dawley, rat, in vivo, 1.5 mg, t1/2, summary, intraduodenal, 1.5 mg/animal, 25 μL Capmul MCM L8) was 27.2 min, the half-life (male, Sprague-Dawley, rat, in vivo, 1.5 mg, t1/2, summary, intraduodenal, 1.5 mg/animal, 50 μL Capmul MCM L8) was 24.6 min and the half-life (male, Sprague-Dawley, rat, in vivo, 1.5 mg, t1/2, summary, intraduodenal, 1.5 mg/animal, 75 μL Capmul MCM L8) was 24.9 min. For the same compound, the Tmax (male, Sprague-Dawley, rat, in vivo, 1.5 mg, tmax, intraduodenal bolus, 1.5 mg/animal, 75 μL Capmul MCM L8, rat 964) was 15 min, the concentration at 0.25 hr (male, Sprague-Dawley, rat, in vivo, 1.5 mg/animal, Plasma concentration, ID bolus 1.5 mg/animal, 25 µL Capmul MCM L8, 0.25 hr, mean) was 1180 ng/mL and the concentration at 0.5 hr (male, Sprague-Dawley, rat, in vivo, 1.5 mg/animal, Plasma concentration, ID bolus 1.5 mg/animal, 25 µL Capmul MCM L8, 0.5 hr, individual rats) was 916 ng/mL. For the same compound, the concentration at 0.5 hr (male, Sprague-Dawley, rat, in vivo, 1.5 mg/animal, Plasma concentration, ID bolus 1.5 mg/animal, 25 µL Capmul MCM L8, 0.5 hr, mean) was 838 ng/mL, the concentration at 0.83 hr (male, Sprague-Dawley, rat, in vivo, 1.5 mg/animal, Plasma concentration, ID bolus 1.5 mg/animal, 25 µL Capmul MCM L8, 0.83 hr, mean) was 1650 ng/mL and the concentration at 1 hr (male, Sprague-Dawley, rat, in vivo, 1.5 mg/animal, Plasma concentration, ID bolus 1.5 mg/animal, 25 µL Capmul MCM L8, 1.0 hr, individual rats) was 387 ng/mL. It also gave a concentration at 1 hr (male, Sprague-Dawley, rat, in vivo, 1.5 mg/animal, Plasma concentration, ID bolus 1.5 mg/animal, 25 µL Capmul MCM L8, 1.0 hr, mean) of 341 ng/mL, a concentration at 1.5 hr (male, Sprague-Dawley, rat, in vivo, 1.5 mg/animal, Plasma concentration, ID bolus 1.5 mg/animal, 25 µL Capmul MCM L8, 1.5 hr, individual rats) of 145 ng/mL and a concentration at 1.5 hr (male, Sprague-Dawley, rat, in vivo, 1.5 mg/animal, Plasma concentration, ID bolus 1.5 mg/animal, 25 µL Capmul MCM L8, 1.5 hr, mean) of 136 ng/mL. For the same compound, the concentration at 2 hr (male, Sprague-Dawley, rat, in vivo, 1.5 mg/animal, Plasma concentration, ID bolus 1.5 mg/animal, 25 µL Capmul MCM L8, 2.0 hr, individual rats) was 70.7 ng/mL, the concentration at 2 hr (male, Sprague-Dawley, rat, in vivo, 1.5 mg/animal, Plasma concentration, ID bolus 1.5 mg/animal, 25 µL Capmul MCM L8, 2.0 hr, mean) was 71.9 ng/mL and the concentration at 0.25 hr (male, Sprague-Dawley, rat, in vivo, 1.5 mg/animal, Plasma concentration, ID bolus 1.5 mg/animal, 50 µL Capmul MCM L8, Ex.7, 0.25 hr, individual rats) was 2060 ng/mL. It also gave a concentration at 0.25 hr (male, Sprague-Dawley, rat, in vivo, 1.5 mg/animal, Plasma concentration, ID bolus 1.5 mg/animal, 50 µL Capmul MCM L8, Ex.7, 0.25 hr, mean) of 1580 ng/mL, a concentration at 0.5 hr (male, Sprague-Dawley, rat, in vivo, 1.5 mg/animal, Plasma concentration, ID bolus 1.5 mg/animal, 50 µL Capmul MCM L8, Ex.7, 0.5 hr, individual rats) of 1250 ng/mL and a concentration at 0.5 hr (male, Sprague-Dawley, rat, in vivo, 1.5 mg/animal, Plasma concentration, ID bolus 1.5 mg/animal, 50 µL Capmul MCM L8, Ex.7, 0.5 hr, mean) of 1000 ng/mL.
